Values quoted from earlier work, collected in PMC7998273, “Zein Nanoparticles Improve the Oral Bioavailability of Curcumin in Wistar Rats” (Pharmaceutics, 2021).

Set-up: method as in PMID 17400527
Conditions: orally administered

Oral bioavailability: ca. 1%
SMILES: COc1cc(/C=C/C(=O)CC(=O)/C=C/c2ccc(O)c(OC)c2)ccc1O [CC, curcumin]
